# Reference: patent US20230365570A1, “COMPOUNDS WITH GLUCOCORTICOID SPARING EFFECTS AND USES THEREOF” (The Regents of the University of California, priority 2020, published 2023)
# Experiments:
# [1] = system: THP-1 cells; assay: CXCL8 production by LPS stimulated THP-1 cells (ELISA); assay type: cell-based, human; details: LPS 10 ng/ml, purchased compound, mean LPS CXCL8 201.1 pg/ml = 100%
# Experimental: (§1) THP-1 cells (10^5 cells/200 μL/well) and RA FLS (104/200 μL/well) were plated in 96 well plates and pre-treated with compound or vehicle for 1 h and then stimulated with either LPS (10 ng/ml), 1L-1ß (2 ng/ml) or TNF (2 ng/ml for THP-1 and 1 ng/ml for RA FLS). After 18 h of incubation, supernatants were collected and the levels of cytokines and chemokines in the culture supernatants were measured by ELISA according to the manufacturer's protocols (R&D systems, Minneapolis, MN).
# The 122 hit compounds underwent additional screening and were evaluated for their effects on cell viability and the ability to suppress production of an NF-κB-associated chemokine, CXCL8 (IL-8) by LPS stimulated THP-1 cells (FIG. 2D). The cells were also examined for viability after 24 h of stimulation by MTT assay (FIG. 2E).
# Three of the eleven chemotypes were excluded based on the potential for them to be Michael acceptors, In many cases α,β-unsaturated carbonyls such as those found in these chemotypes can form adducts with thiols, especially under physiological conditions (pH=6-8), reducing the in vivo efficacy. Also, Michael acceptors are often […] IKKß inhibitors and thereby inhibit NF-KB response. […]
# [2] = system: THP-1 cells; assay: Cell viability by MTT assay in THP-1 cells; assay type: cell-based, human; details: for Cellular viability (% Viability compared to Veh): 10 uM (FIG. 8B)
# Experimental: Two types of tetrazolium were used for viability assays. […] After 18 h of incubation, 0.5 mg/ml 3[4,5-dimethylthiazol-2-yl]-2,5-dipheyl tetrazolium bromide (MTT; Thermo Fisher Scientific) in assay media was added to each well at a final concentration of (0.5 mg/ml) and further incubated for 4-6 h. The absorbances at 570 and 650 nm were measured by a Tecan Infinite M200 plate reader, For RA FLS, the cells were dispersed into 96-well flat bottom plates (104/200 μL/well) and incubated overnight. The next day, RA FLS were treated with 5 μM of each compound for 18 h of incubation. Ten μl of WST-8 [2-(2-methoxy-4-nitrophenyl)-3-(4-nitrophenyl)-5-(2,4-disulfophewnyl)-2H-tetrazolium, monosodium salt] solution was added to each well and the cells were further incubated for 2-4 h. The absorbance was measured at 450 nm with Bio-Rad iMark plate reader (Bio-Rad Laboratories Inc., Hercules, CA, Unites States).
# [3] = system: THP-1 cells; assay: TNF stimulated CXCL8 release by THP-1 cells; assay type: cell-based, human; details: TNF 2 ng/ml, overnight (FIG. 3B)
# Experimental: as §1
# (§2) The lead compounds belonging to chemotypes 1, 3, and 5 were tested for potency in suppressing chemokine and cytokine production by THP-1 cells in the presence of different inflammatory stimuli. The production of CXCL8 induced by either LPS (10 ng/ml), IL-1ß (2 ng/ml), or TNF (2 ng/ml) and TNF induced by IL-1ß (2 ng/ml) was assessed using serially diluted compounds. The compounds except 1-2 reduced the level of CXCL8 production stimulated by LPS in a dose dependent manner (FIG. 3A). However, the compounds from chemotype 5 enhanced CXCL8 release by THP-1 cells when stimulated with IL-111, or TNF (FIGS. 3B, C). […] The 1Cs0 for 1-1, 1-2 and 3-1 for IL-1ß stimulated CXCL8 release included 400, 1770, and 2020 nM, respectively, (FIG. 3C).
# [4] = system: THP-1 cells; assay: IL-1ß stimulated CXCL8 release by THP-1 cells; assay type: cell-based, human; details: IL-1ß 2 ng/ml, overnight (FIG. 3C)
# Experimental: as §1, §2
# [5] = system: THP-1 cells; assay: IL-1ß stimulated TNF release by THP-1 cells; assay type: cell-based, human
# Experimental: as §1, §2
# [6] = system: THP-1 cells; assay: Combination and synergy of compounds with DEX, CXCL8 release by TNF stimulated THP-1 cells; assay type: cell-based, human
# Experimental: Drug synergy analysis was performed using lsobologram plots which were calculated according to reported procedures to compute IC50 and determine synergism. IC50 is computed from the median effect equation. Synergism analysis is carried out using the Combination index (Cl)-isobol method. Data analysis was performed using the CompuSyn software available on combisyn.com, Detailed methodology was used as described in a prior report. Briefly, the median-effect equation is computed to obtain the linear regression for the effect of inhibitors DEX and 1−1 as Fa/Fu=(D/D50)^m, where D is the dose; Fa and Fu is the fraction of the inhibition and uninhibited response by the dose D (Fa+Fu=1); D50 is the dose producing the median effect (i.e, IC50). The constant m determines the shape of the dose-effect curve. The median-effect equation in logarithmic form is log (Fa/Fu) =m log(D)−m log (D50) which essentially represents a linear relationship between log(Fa/Fu) and log(D). […] This is followed by Cl-isobol method to quantitatively assess the synergism between these inhibitor drugs. A combination index (Cl) is estimated from dose-effect data of single and combined drug treatments. A value of C; less than one indicates synergism; Cl=1 indicates additive effect; and Cl>1 indicates antagonism. Drug interaction (synergism or antagonism) is more pronounced the further a CI value is from 1. […] The doses Dx1 and Dx2 were estimated from the median effect equation above for single drug treatments. From the median effect equation, the estimated dose (i.e., D) necessary to produce the inhibition (i.e., Fa, Fu) obtained by the combination was calculated. The results are presented as a normalized isobolograrn. A point in the isobologram represents the effect of a drug(s) treatment.
# To assess whether the remaining candidate compounds would provide additional benefit to a low dose of glucocorticoid, THP-1 cells were stimulated with TNF and treated them with serially diluted compounds and 100 nM DEX (FIGS. 4A-C). […] Next whether there was an additive or synergistic effect with these three compounds and DEX was formally addressed. […] The four CXCL8 levels below the maximum plateau were used to calculate an isobologram (FIG. 5D).
# [7] = system: murine bone marrow-derived dendritic cells (BMDCs); assay: TNF-α and IP-10 induction by TLR and STING ligands in murine BMDCs; assay type: cell-based, mouse; details: BMDCs from WT and Tmem173-/- mice (FIGS. 9A-D)
# Experimental: (§3) FIGS. 9A-9F show the partial STING dependent activity of nitrofuranylamide compounds 4, 5 and 6 and inhibition of TLR pathways.
# (§4) Since the synthesized compounds were identified via assays in human cells, there was interest in verifying the potency of these compounds in murine cells. Compounds were incubated with murine bone marrow-derived dendritic cells (BM DCs) obtained from wild-type (WT) mice and STING null (Tmem173^−/−) mice as STING had been reported as the target of other nitrofuranylamides. […] To compare these compounds, the IC50 values of these compounds were assessed in dose titration studies.
# [8] = system: mBMDCs; assay: IFNβ induced by DMXAA in mBMDCs; assay type: cell-based, mouse; details: for IFNβ induced by DMXAA: mBMDCs (FIG. 9F)
# Experimental: as §3, §4
# [9] = system: mice; assay: K/BxN serum induced arthritis and allodynia in mice; assay type: in vivo, mouse
# Experimental: FIGS. 10A-10D show the in vivo activity of compound 5 in WT and STING knock-out Tmem173^−/− mice. Mice were induced with K/B×N serum on days 0 and 2 to have arthritis and related pain. Compound 5 was administered (750 nmol) IP BID on days 0-5. […] (B) These effects of compound 5 are not seen in similarly treated Tmem173−/− mice. Mechanical allodynia is measured with monofilaments in a von Frey assay and increase in pain perception by the animal is recorded as a drop in the threshold. *P<0.0001 by two-way ANOVA.
# [10] = system: NF-κB; assay: NF-κB activation assay in LPS stimulated CellSensor NF-κB-bla THP-1 reporter cells; assay type: cell-based, human; details: 5 h and 16 h time points
# Experimental: In the presence of lactamase, CCF4 was enzymatically cleaved and excitation at 409 nm produced a blue fluorescence signal (at 450 nm), The CellSensor® NF-κB-bla THP-1 cells were dispersed in 96-well plates (5×10^4 cells/200 μL/well) and incubated for 4 h, Then the cells were treated with 5 μM of each compound and 10 ng/ml of LPS for 5 or 12 h in 5% CO2 at 37° C. After incubation, the ß-lactamase substrate mixture (prepared according to the manufacturer's protocol) was added to each well. Plates were incubated at room temperature in the dark for 2 h. Fluorescence was measured on a Tecan Infinite M200 plate reader (Tecan, Mannedorf, Switzerland) at an excitation wavelength of 405 nm and emission wavelengths of 465 and 535 nm. Emission ratios are calculated by dividing values from emission wavelength of 465 nm by those from emission wavelength of 535 nm, The response ratio was calculated as follows [(emission ratio of a test well)/average emission ratio of wells with vehicle (0.5% DMSO)] and values were normalized to the LPS control treated wells [response ratio of the compound/response ratio of LPS].
# Using LPS as a primary inflammatory stimulus the effect of these compounds on NF-κB activity was evaluated at two time points to profile the kinetics of their suppression.
# [11] = WT mice, 750 nmoles IP BID for 6 days
Compound,Cellular viability (% Viability compared to Veh) [2],TNF release when stimulated with IL-1ß ([5]; THP-1 cells),"mIP-10 production induced by TLR4 (LPS), TLR7 (1V270) and STING (DMXAA) ligands [7]","mTNF-a production induced by TLR4 (LPS), TLR7 (1V270) and STING (DMXAA) ligands [7]",IFNβ induced by DMXAA [8],also measured
CCCCNc1ncnc2c1cnn2-c1ccc(C)cc1C [Compound 1-2],–,–,–,–,–,"CXCL8 production. Relative to LPS (purchased) [1]: 70.1%; % Cellular Viability (Purchased) ([2]; purchased compound): 100.1%; IC50 [3]: 4.13 µM; IC50 [4]: 1.77 µM; IC50 ([5]; THP-1 cells, IL-1ß 2 ng/ml, overnight (FIG. 3D)): 2.77 µM; Effect of addition of DEX on CXCL8 production ([6]; TNF 2 ng/ml stimulated THP-1 cells, serially diluted compound plus 100 nM DEX (FIGS. 4A-C)): only effective at the lower doses; Synergy with DEX, isobologram of potency ratios for CXCL8 ([6]; TNF stimulated THP-1 cells, compound and DEX titrated at same molarity (FIG. 5D)): modestly synergistic"
CCOc1ccc(NC(=O)c2ccc([N+](=O)[O-])o2)cc1 [Compound 4],approximately 100%,Dose-dependent inhibition,inhibited,inhibited,Dose-dependent inhibition,–
O=C(Nc1cccc(C(F)(F)F)c1)c1ccc([N+](=O)[O-])o1 [Compound 5],approximately 100%,Dose-dependent inhibition,inhibited,inhibited,Dose-dependent inhibition,"Cytokine inhibition IC50, human cell studies ([5]; THP-1 cells stimulated with IL-1β, TNF-a (FIG. 9E)): nanomolar (nM) range; Cytokine inhibition IC50, mouse cell studies ([8]; mBMDCs stimulated with DMXAA, IFNβ (FIG. 9F)): nanomolar (nM) range; Pain or swelling in Tmem173-/- mice ([9]; Tmem173-/- mice, 750 nmol IP BID): no statistically significant effect; Acute inflammation in the ankle (ankle thickness) [9, 11]: modest effect; Mechanical allodynia (von Frey filaments) [9, 11]: significantly reduced"
O=C(Nc1cc([N+](=O)[O-])ccc1Cl)c1ccc([N+](=O)[O-])o1 [Compound 6],approximately 100%,Dose-dependent inhibition,inhibited,inhibited,Dose-dependent inhibition,–
"C[C@@H]1C[C@H]2[C@@H]3CCC4=CC(=O)C=C[C@]4(C)[C@@]3(F)[C@@H](O)C[C@]2(C)[C@@]1(O)C(=O)CO [DEX, dexamethasone, reference compound]",–,–,–,–,–,"IC50 ([6]; Homo sapiens, TNF stimulated THP-1 cells, single agents (FIG. 5A), read-out: IC50 for TNF stimulated CXCL8 release (titration with DEX)): 0.3 µM"
"NC(=O)Nc1sc(-c2ccc(F)cc2)cc1C(N)=O [UTC, 5-(4-fluorophenyl)-2-ureidothiophene-3 carboxylic acid amide]",–,–,–,–,–,Inhibition of NF-κB activity [10]: inhibited NF-κB activity at both time points
polymyxin B,–,–,–,–,–,Inhibition of NF-κB activity [10]: suppressed NF-κB activity at both timepoints
